For this assay, the system named is 648629-189-R-J1-PDC complex spheroids viability. In words: Anticancer human tumor 648629-189-R-J1-PDC patient-derived bladder carcinoma cell line growth inhibition [CLK]. Particulars: for viability, T/C: stronger effect = lower value. The procedure, abridged: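 Multi-cell-type spheroids combined patient-derived tumor cells with HUVEC endothelial cells and human mesenchymal stem cells. Paired agents were dosed in half-log steps down from about clinical Cmax, or from 10 microM where Cmax was unknown.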

[1] abbreviates: curve of first compound, second compound 0.0316 µM.
The mark [2] stands for this setting: curve of first compound, second compound 0.1 µM.
The mark [3] stands for this setting: curve of first compound, second compound 0.316 µM.
The mark [4] stands for this setting: curve of first compound, second compound 1 µM.
[5] abbreviates: curve of first compound, second compound 3.16 µM.
[6] abbreviates: curve of first compound, second compound 10 µM.

pIC50: −log10 of the molar value. Several values for one entry are separate records, joined by “and”; a condition that tells them apart may be missing. Equal values may be shown once.

The source of these data is PubChem BioAssay AID2060602 (Molecular Pharmacology Branch, DTP, NCI, 2025).
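Wherever viability, T/C is given: drug exposure lasted seven days before viability readout; 100% = DMSO vehicle control wells.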

For `O=c1[nH]cc(F)c(=O)[nH]1` + CN1CCN(c2cc(C(=O)Nc3cc4cc(-c5cnn(C)c5)ccc4cn3)ccn2)CC1, the pIC50 (commonly the IC50 on a negative log10 scale, so that one unit is a factor of ten) runs as follows: under setting [1], 5.83; under setting [2], 5.97; under setting [3], greater than 7.50; under setting [4], greater than 7.50; under setting [5], greater than 7.50; under setting [6], greater than 7.50. The viability, T/C (as a rule, the ratio of treated to control) reads like this: (second compound 0.0316 µM, first compound 0.0316 µM) 114%; (second compound 0.0316 µM, first compound 0.1 µM) 121%; (second compound 0.0316 µM, first compound 0.316 µM) 83%; (second compound 0.0316 µM, first compound 1 µM) 63.3%; (second compound 0.0316 µM, first compound 3.16 µM) 30.7%; (second compound 0.0316 µM, first compound 10 µM) 21.9%. Further, the viability, T/C runs as follows: (second compound 0.1 µM, first compound 0.0316 µM) 114%; (second compound 0.1 µM, first compound 0.1 µM) 97.7%; (second compound 0.1 µM, first compound 0.316 µM) 96.3%; (second compound 0.1 µM, first compound 1 µM) 49.1%; (second compound 0.1 µM, first compound 3.16 µM) 33.7%; (second compound 0.1 µM, first compound 10 µM) 21.9%. The viability, T/C reads like this: (second compound 0.316 µM, first compound 0.0316 µM) 40.7%; (second compound 0.316 µM, first compound 0.1 µM) 40.6%; (second compound 0.316 µM, first compound 0.316 µM) 34.1%; (second compound 0.316 µM, first compound 1 µM) 29.9%; (second compound 0.316 µM, first compound 3.16 µM) 23.9%; (second compound 0.316 µM, first compound 10 µM) 20.7%. Further, the viability, T/C is 0.35% (second compound 1 µM, first compound 0.0316 µM); 0.26% (second compound 1 µM, first compound 0.1 µM); 0.78% (second compound 1 µM, first compound 0.316 µM); 0.34% (second compound 1 µM, first compound 1 µM); 0.27% (second compound 1 µM, first compound 3.16 µM); 1.43% (second compound 1 µM, first compound 10 µM). Further, the viability, T/C (second compound 3.16 µM, first compound 0.0316 µM) was 0.06%; the viability, T/C (second compound 3.16 µM, first compound 0.1 µM) is 1.49%; the viability, T/C (second compound 3.16 µM, first compound 0.316 µM) was 0.1%; the viability, T/C (second compound 3.16 µM, first compound 1 µM) was 0.07%; the viability, T/C (second compound 3.16 µM, first compound 3.16 µM) was 0.55%; the viability, T/C (second compound 3.16 µM, first compound 10 µM) was 0.1%. Besides, the viability, T/C was 0.06% (second compound 10 µM, first compound 0.0316 µM); 0.27% (second compound 10 µM, first compound 0.1 µM); 3.05% (second compound 10 µM, first compound 0.316 µM); 0.13% (second compound 10 µM, first compound 1 µM); 1.38% (second compound 10 µM, first compound 3.16 µM); 1.3% (second compound 10 µM, first compound 10 µM).
For `NC(=O)C(=Cn1cnc(-c2cc(C(F)(F)F)cc(C(F)(F)F)c2)n1)c1cncnc1`, the viability, T/C runs as follows: (compound 0.00949 µM) 102% and 105%; (compound 0.03 µM) 86.1% and 84.8%; (compound 0.0949 µM) 24.7% and 19.3%; (compound 0.3 µM) 9.87% and 6.77%; (compound 0.949 µM) 3.5% and 4.03%; (compound 3 µM) 1.5% and 1.39%. Also, the pIC50 (curve of compound) is 7.23 and 7.26.
With `CCCS(=O)(=O)Nc1ccc(F)c(C(=O)c2c[nH]c3ncc(-c4ccc(Cl)cc4)cc23)c1F`, the viability, T/C reads like this: (compound 0.0316 µM) 99.7% and 107%; (compound 0.1 µM) 97% and 82.6%; (compound 0.316 µM) 98.6% and 98.2%; (compound 1 µM) 104% and 93.3%; (compound 3.16 µM) 108% and 90%; (compound 10 µM) 32.9% and 19.8%. In addition, the pIC50 (curve of compound) was 5.12 and 5.22.
As to `CC(=O)O[C@H]1C(=O)[C@@]2(C)[C@H]([C@H](OC(=O)c3ccccc3)[C@]3(O)C[C@H](OC(=O)[C@H](O)[C@@H](NC(=O)c4ccccc4)c4ccccc4)C(C)=C1C3(C)C)[C@]1(OC(C)=O)CO[C@@H]1C[C@@H]2O`, the viability, T/C is, setting by setting: (compound 0.0316 µM) 10.4% and 11.2%; (compound 0.1 µM) 10.1% and 12.7%; (compound 0.316 µM) 10.1% and 11.7%; (compound 1 µM) 12.9% and 13.5%; (compound 3.16 µM) 10.8% and 10.5%; (compound 10 µM) 13.3% and 15.2%. Moreover, for the setting “curve of compound”, the negative logarithm of the IC50 (pIC50) was greater than 7.50.
Take `CC(C)CC(NC(=O)C(Cc1ccccc1)NC(=O)c1cnccn1)B(O)O` (stereo not given) + CNC(=O)c1ccc(Nc2nc(OC3CCCC3)c3c(-c4ccc5nc(C)oc5c4)c[nH]c3n2)c(OC)c1: the pIC50 is, setting by setting: under setting [1], 8.52; under setting [2], 8.66; under setting [3], greater than 9.02; under setting [4], greater than 9.02; under setting [5], greater than 9.02; under setting [6], greater than 9.02. The viability, T/C by setting is: (second compound 0.0316 µM, first compound 0.000949 µM) 105%; (second compound 0.0316 µM, first compound 0.003 µM) 50.5%; (second compound 0.0316 µM, first compound 0.00949 µM) 1.99%; (second compound 0.0316 µM, first compound 0.03 µM) 0.26%; (second compound 0.0316 µM, first compound 0.0949 µM) 0.18%; (second compound 0.0316 µM, first compound 0.3 µM) 1.59%. For the same compound, the viability, T/C is, setting by setting: (second compound 0.1 µM, first compound 0.000949 µM) 91.4%; (second compound 0.1 µM, first compound 0.003 µM) 35%; (second compound 0.1 µM, first compound 0.00949 µM) 0.64%; (second compound 0.1 µM, first compound 0.03 µM) 0.21%; (second compound 0.1 µM, first compound 0.0949 µM) 0.15%; (second compound 0.1 µM, first compound 0.3 µM) 1.03%. The viability, T/C runs as follows: (second compound 0.316 µM, first compound 0.000949 µM) 34.9%; (second compound 0.316 µM, first compound 0.003 µM) 35%; (second compound 0.316 µM, first compound 0.00949 µM) 0.45%; (second compound 0.316 µM, first compound 0.03 µM) 0.28%; (second compound 0.316 µM, first compound 0.0949 µM) 0.76%; (second compound 0.316 µM, first compound 0.3 µM) 0.16%. The viability, T/C is, setting by setting: (second compound 1 µM, first compound 0.000949 µM) 23.6%; (second compound 1 µM, first compound 0.003 µM) 24.1%; (second compound 1 µM, first compound 0.00949 µM) 2.18%; (second compound 1 µM, first compound 0.03 µM) 0.36%; (second compound 1 µM, first compound 0.0949 µM) 0.34%; (second compound 1 µM, first compound 0.3 µM) 1.9%. Further, the viability, T/C was 28.1% (second compound 3.16 µM, first compound 0.000949 µM); 9.77% (second compound 3.16 µM, first compound 0.003 µM); 3.72% (second compound 3.16 µM, first compound 0.00949 µM); 0.62% (second compound 3.16 µM, first compound 0.03 µM); 1.49% (second compound 3.16 µM, first compound 0.0949 µM); 0.23% (second compound 3.16 µM, first compound 0.3 µM). Also, the viability, T/C is, setting by setting: (second compound 10 µM, first compound 0.000949 µM) 24.2%; (second compound 10 µM, first compound 0.003 µM) 14.2%; (second compound 10 µM, first compound 0.00949 µM) 1.91%; (second compound 10 µM, first compound 0.03 µM) 0.53%; (second compound 10 µM, first compound 0.0949 µM) 1.61%; (second compound 10 µM, first compound 0.3 µM) 1.49%.
